The target in assay [1] is T1, human 5-HT1A receptor (Homo sapiens, UniProt P08908).
T1 construct: host or cells: HEK293T
T1 sequence (P08908 1-422): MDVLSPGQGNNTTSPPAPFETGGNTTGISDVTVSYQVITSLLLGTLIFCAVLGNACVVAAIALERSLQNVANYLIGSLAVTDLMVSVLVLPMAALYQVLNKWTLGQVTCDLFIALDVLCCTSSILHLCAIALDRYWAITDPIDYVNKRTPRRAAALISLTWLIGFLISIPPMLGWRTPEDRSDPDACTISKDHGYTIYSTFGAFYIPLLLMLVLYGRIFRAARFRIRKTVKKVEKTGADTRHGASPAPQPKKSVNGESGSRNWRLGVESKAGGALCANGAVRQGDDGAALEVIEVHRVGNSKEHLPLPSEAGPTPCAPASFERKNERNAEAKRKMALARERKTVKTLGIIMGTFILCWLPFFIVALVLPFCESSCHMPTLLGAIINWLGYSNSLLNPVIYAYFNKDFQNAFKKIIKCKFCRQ
Description: Radioligand binding (saturation and competition), WT 5-HT1A.

Assay [2] deals with T2, human 5-HT1B receptor (Homo sapiens, UniProt P28222).
T2 construct: host or cells: HEK293T
Description: Radioligand binding (saturation and competition), WT 5-HT1B.

For assay [3], the target named is T3, human 5-HT1D receptor (Homo sapiens, UniProt P28221).
T3 construct: host or cells: HEK293T
Description: Radioligand binding (saturation and competition), WT 5-HT1D.

For a further assay, the target named is T4, human 5-HT1F receptor (Homo sapiens, UniProt P30939).
T4 construct: host or cells: HEK293T
T4 sequence (P30939 1-366): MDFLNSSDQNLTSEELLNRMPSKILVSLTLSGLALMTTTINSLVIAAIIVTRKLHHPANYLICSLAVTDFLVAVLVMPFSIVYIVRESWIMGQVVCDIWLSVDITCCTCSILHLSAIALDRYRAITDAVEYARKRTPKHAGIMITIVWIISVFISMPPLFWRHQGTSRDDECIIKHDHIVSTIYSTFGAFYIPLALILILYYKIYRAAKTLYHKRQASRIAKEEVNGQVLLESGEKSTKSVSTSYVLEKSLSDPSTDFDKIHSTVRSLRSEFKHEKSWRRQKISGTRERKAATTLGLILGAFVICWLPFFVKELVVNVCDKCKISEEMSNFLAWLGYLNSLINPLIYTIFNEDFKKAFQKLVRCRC
Description: Radioligand binding (saturation and competition), WT 5-HT1F.

The target of assay [4] is T1, human 5-HT1A receptor. Nature of the assay: cAMP accumulation (LANCE Ultra TR-FRET) in HEK293T cells, WT 5-HT1A. Type of assay: cell-based. The conditions noted are these: for Emax: HEK-293T; for EC50: cAMP accumulation, HEKt cells, mean ± SD. The protocol:
(§1) Briefly, cells transfected with the desired receptor construct and compounds were incubated in the dark for 90 min at 37 °C. After incubation, cAMP detection reagents were added, and TR-FRET was used to quantify the cAMP produced.
(§2) The functional activity of compounds was determined by stimulating cells expressing the desired receptor with FSK and test compound in parallel with 12 known concentrations of cAMP. The known concentrations of cAMP were used to create a standard curve for each experiment that was used to interpolate the unknown values of cAMP in wells with test compounds. […] The EC50 and EMAX values were determined using the “dose response – log[agonist] vs response (three parameter)” nonlinear regression model in Prism and transformed to pEC50 values, reported as mean ± SD.
(§3) Summary of functional assay conditions at various 5-HT1 receptor point mutation constructs.

In assay [5] the target is T2, human 5-HT1B receptor. Nature of the assay: cAMP accumulation (LANCE Ultra TR-FRET) in HEK293T cells, WT 5-HT1B. It is filed as cell-based. The conditions noted are these: for Emax: HEK-293T; for EC50: cAMP accumulation, HEKt cells, mean ± SD. The method, then: as §1, §2, §3
(Changes in cAMP serve as a functional read-out for many G protein-coupled receptors.)

Assay [6] addresses T3, human 5-HT1D receptor. Description: cAMP accumulation (LANCE Ultra TR-FRET) in HEK293T cells, WT 5-HT1D. Type of assay: cell-based. The conditions noted are these: for Emax: HEK-293T; for EC50: cAMP accumulation, HEKt cells, mean ± SD. The method, then:
as §1, §2, §3

The mark [7] stands for this setting: read-out: Affinity (pKi ± SD) 5-HT1A (converted).
Setting [8] is: read-out: Affinity (pKi ± SD) 5-HT1B (converted).
Where [9] appears, read: read-out: Affinity (pKi ± SD) 5-HT1D (converted).
Where [10] appears, read: WT receptor, [^3H]5-HT competition, mean ± SD, read-out: Affinity (pKi ± SD) 5-HT1F (converted).
The mark [11] stands for this setting: Affinity (pKi ± SD) 5-HT1A, WT receptor, [^3H]5-CT competition, mean ± SD.
Where [12] appears, read: Affinity (pKi ± SD) 5-HT1B, WT receptor, [^3H]5-CT competition, mean ± SD.
Setting [13] is: Affinity (pKi ± SD) 5-HT1D, WT receptor, [^3H]5-CT competition, mean ± SD.
[14] abbreviates: read-out: 5-HT1B EMAX (%), WT receptor, normalized to basal (0%) and 10 μM 5-CT (100%).
[15] abbreviates: read-out: 5-HT1D EMAX (%), WT receptor, normalized to basal (0%) and 10 μM 5-CT (100%).
Where [16] appears, read: read-out: 5-HT1A EMAX (%), WT receptor, normalized to basal (0%) and 10 μM 5-CT (100%).
Setting [17] is: WT receptor, read-out: 5-HT1D pEC50 (converted).
[18] abbreviates: WT receptor, read-out: 5-HT1A pEC50 (converted).
Setting [19] is: WT receptor, read-out: 5-HT1B pEC50 (converted).

Read-outs that look alike come from different tables or passages of the source.

T3 sequence (P28221 whole entry): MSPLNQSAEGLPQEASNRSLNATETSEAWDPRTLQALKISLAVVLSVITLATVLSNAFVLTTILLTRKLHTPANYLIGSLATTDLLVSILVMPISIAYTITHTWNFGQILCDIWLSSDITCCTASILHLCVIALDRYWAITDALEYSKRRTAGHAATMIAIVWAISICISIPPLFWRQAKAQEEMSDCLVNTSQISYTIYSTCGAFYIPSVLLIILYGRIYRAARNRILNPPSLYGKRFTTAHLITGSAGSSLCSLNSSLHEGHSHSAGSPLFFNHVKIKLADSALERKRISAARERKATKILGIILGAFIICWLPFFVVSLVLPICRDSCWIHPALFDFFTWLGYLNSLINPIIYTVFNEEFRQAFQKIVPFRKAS
T2 sequence (P28222 whole entry): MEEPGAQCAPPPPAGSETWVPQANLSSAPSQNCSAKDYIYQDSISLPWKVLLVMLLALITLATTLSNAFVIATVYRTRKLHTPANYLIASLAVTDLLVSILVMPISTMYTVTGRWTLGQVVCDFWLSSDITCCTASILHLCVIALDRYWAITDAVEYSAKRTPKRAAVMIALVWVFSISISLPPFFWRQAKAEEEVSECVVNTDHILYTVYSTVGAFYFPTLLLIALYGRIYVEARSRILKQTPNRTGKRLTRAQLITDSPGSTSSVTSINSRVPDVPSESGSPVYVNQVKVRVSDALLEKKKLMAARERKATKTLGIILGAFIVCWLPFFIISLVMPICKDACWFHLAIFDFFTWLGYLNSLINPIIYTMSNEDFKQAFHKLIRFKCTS

Regarding `Fc1ccccc1-c1cccc2c1CC[C@@H](N1CCCC1)C2` [(R)-PFPT], the Ki on human 5-HT1A receptor [1] (setting [7]) was 288 nM; at human 5-HT1B receptor [2] (setting [8]), 457 nM; at human 5-HT1D receptor [3] (setting [9]), 417 nM; on human 5-HT1F receptor (setting [10]), above 10000 nM.
On to `CN(C)[C@@H]1CCc2c(cccc2-c2cccs2)C1` [(R)-TAT], for which the Ki on human 5-HT1A receptor [1] (setting [11]) is 1510 nM; at human 5-HT1B receptor [2] (setting [12]) it was 3160 nM; on human 5-HT1D receptor [3] (setting [13]) it was 813 nM; at human 5-HT1F receptor, above 10000 nM.
Regarding `CCCN(CCC)[C@H]1CCc2cccc(O)c2C1` [(S)-8-OH-DPAT, 8-hydroxy-N,N-dipropyl-1,2,3,4-tetrahydronaphthalen-2-amine, reference compound], the Ki at human 5-HT1F receptor is above 10000 nM. Moreover, the “5-HT1A EMAX (%)” value on human 5-HT1A receptor [4] (WT receptor, normalized to basal (0%) and 10 μM 5-CT (100%)) is 70 ± 3%. The values for the Emax on human 5-HT1B receptor [5] (setting [14]) and on human 5-HT1D receptor [6] (setting [15]) were 85 ± 3% and 94 ± 2%, respectively.
`O=C1CCc2ccc(OCCCCN3CCN(c4cccc(Cl)c4Cl)CC3)cc2N1` [Aripiprazole, aripiprazole, reference compound]: the Ki on human 5-HT1F receptor (setting [10]) is 7240 nM. The maximal response (Emax) – broadly, the greatest response seen or fitted, relative to the assay's reference – on human 5-HT1A receptor [4] (setting [16]) came out at 96 ± 2%; at human 5-HT1B receptor [5] (setting [14]), 99 ± 3%; at human 5-HT1D receptor [6] (setting [15]) it was 96 ± 1%.
With `O=C1CC2(CCCC2)CC(=O)N1CCCCN1CCN(c2ncccn2)CC1` [Buspirone, buspirone, reference compound], the values for the Ki on human 5-HT1D receptor [3] (setting [9]) and on human 5-HT1F receptor (setting [10]) were 617 nM and above 10000 nM, respectively. In addition, the Emax came out at 75 ± 1% on human 5-HT1A receptor [4] (read-out: 5-HT1A EMAX (%)), 45 ± 3% at human 5-HT1B receptor [5] (read-out: 5-HT1B EMAX (%)) and 50 ± 3% on human 5-HT1D receptor [6] (read-out: 5-HT1D EMAX (%)). Moreover, the EC50 on human 5-HT1D receptor [6] (setting [17]) was above 10000 nM.
Consider `CN(C)[C@H]1CCc2c(cccc2-c2cccc3c2oc2ccccc23)C1` [DBZ, (S)-5-(Dibenzo[b,d]furan-4-yl)-N,N-dimethyl-1,2,3,4-tetrahydronaphthalen-2-amine], for which the figures for the Ki at human 5-HT1A receptor [1] (setting [7]), at human 5-HT1B receptor [2] (setting [8]) and at human 5-HT1D receptor [3] (setting [9]) were 309 nM, 69.2 nM and 4.79 nM, respectively. Besides, the Emax is 93 ± 4% on human 5-HT1A receptor [4] (read-out: 5-HT1A EMAX (%)), 93 ± 2% on human 5-HT1B receptor [5] (read-out: 5-HT1B EMAX (%)) and 99 ± 2% at human 5-HT1D receptor [6] (read-out: 5-HT1D EMAX (%)). Further, the EC50 was 813 nM on human 5-HT1A receptor [4] (setting [18]), 64.6 nM at human 5-HT1B receptor [5] (setting [19]) and 4.37 nM on human 5-HT1D receptor [6] (setting [17]).
In the case of `CN(C)[C@H]1CCc2c(cccc2-c2c(F)cccc2F)C1` [Di-FPT, (S)-5-(2,6-Difluorophenyl)-N,N-dimethyl-1,2,3,4-tetrahydronaphthalen-2-amine], the Ki on human 5-HT1A receptor [1] (setting [11]) is 1.7 nM; at human 5-HT1B receptor [2] (setting [12]), 1.62 nM; on human 5-HT1D receptor [3] (setting [13]) it was 1.41 nM. Besides, the EC50 at human 5-HT1A receptor [4] (5-HT1A pEC50, WT receptor) was 1.74 nM; on human 5-HT1B receptor [5] (5-HT1B pEC50, WT receptor), 2.09 nM; on human 5-HT1D receptor [6] (5-HT1D pEC50, WT receptor) it was 1.66 nM. Also, the Emax is 98 ± 2% on human 5-HT1A receptor [4] (setting [16]), 100 ± 1% at human 5-HT1B receptor [5] (setting [14]) and 100 ± 1% at human 5-HT1D receptor [6] (setting [15]).
Regarding `Fc1ccccc1-c1cccc2c1CC[C@H](N1CCNCC1)C2` [FPIP, (S)-1-(5-(2-Fluorophenyl)-1,2,3,4-tetrahydronaphthalen-2-yl)piperazine], the results for the Ki on human 5-HT1A receptor [1] (setting [7]), on human 5-HT1B receptor [2] (setting [8]) and at human 5-HT1D receptor [3] (setting [9]) were 0.977 nM, 107 nM and 87.1 nM, respectively. For the same compound, the values for the Emax on human 5-HT1A receptor [4] (read-out: 5-HT1A EMAX (%)), at human 5-HT1B receptor [5] (read-out: 5-HT1B EMAX (%)) and at human 5-HT1D receptor [6] (read-out: 5-HT1D EMAX (%)) were 95 ± 2%, 99 ± 3% and 98 ± 2%, respectively. In addition, the EC50 was 1.2 nM at human 5-HT1A receptor [4] (setting [18]), 126 nM on human 5-HT1B receptor [5] (setting [19]) and 148 nM at human 5-HT1D receptor [6] (setting [17]). Further, the “selectivity over 5-HT1B and 5-HT1D receptors” value on human 5-HT1A receptor [4] (full efficacy 5-HT1A agonist) is reported as 100 fold.
In the case of `CN1CCC(c2c[nH]c3ccc(NC(=O)c4ccc(F)cc4)cc23)CC1` [LY334370, reference compound], the figures for the Ki on human 5-HT1A receptor [1] (setting [7]), at human 5-HT1D receptor [3] (setting [9]) and at human 5-HT1F receptor (setting [10]) were 501 nM, 2040 nM and 8.32 nM, respectively.
Take `Cc1ccc(CNCC2(F)CCN(C(=O)c3ccc(F)c(Cl)c3)CC2)nc1` [NLX-112, reference compound]: the Ki at human 5-HT1B receptor [2] (setting [12]), on human 5-HT1D receptor [3] (setting [13]) and on human 5-HT1F receptor was above 10000 nM each time. Besides, the maximal response (Emax) on human 5-HT1A receptor [4] (read-out: 5-HT1A EMAX (%)) was found to be 100 ± 3%. For the same compound, the EC50 at human 5-HT1B receptor [5] (read-out: 5-HT1B pEC50 (converted), WT receptor) was above 10000 nM; on human 5-HT1D receptor [6] (read-out: 5-HT1D pEC50 (converted), WT receptor), above 10000 nM.
